Test results as given in patent US20190390220A1, “Compositions and Methods of Increasing Aphid Resistance in Transgenic Plants” (Boyce Thompson Institute, priority 2018, published 2019).

Key:
A. glycines = test: flavonoid in vitro feeding bioassay on artificial diet, soybean aphid; type: in vivo, Aphis glycines; conditions: artificial diet with 0.01% apigenin; compared with control diet (DMSO); adults
Description: (§1) A pea aphid colony (A. pisum strain CWR09/18, kindly supplied by Angela Douglas, Cornell University) was reared on faba bean plants (Viciafaba, var. Windsor; Johnny's Selected Seeds, Winslow, Me., USA) which were grown in Metromix 200 (Scotts, Marysville, Ohio, USA) in a growth chamber at the same condition with soybeans in insect rearing room at 25° C. with a 12:12 h day:night cycle (64). A soybean aphid colony (A. glycines), kindly supplied by Gustavo Macintosh at Iowa State University, was reared on soybean plants (G. max var. William 82) that were grown in same soil and conditions as described for the pea aphid colony.
(§2) For flavonoid in vitro feeding bioassays, the effects of three isoflavones, daidzein, formononetin and prunetin, as well as two flavones, apigenin and kaempferol on A. glycines and A. pisum adults were tested by rearing 30 insects on an artificial diet (65) in membrane feeding tubes. Adults were fed an artificial diet containing one of the following treatments, 0.01% apigenin, 0.2% daidzein, 0.01% prunetin, 0.04% formononetin or 0.02% kaempferol for 6 days in an insect rearing room (25° C. with a 12:12 h day:night cycle). […] The compound concentrations for diet experiments were based on their measured concentrations in soybean leaves. After 6 days of feeding, the number of surviving aphids was counted.

A. pisum = test: flavonoid in vitro feeding bioassay on artificial diet, pea aphid; type: in vivo, Acyrthosiphon pisum; conditions: artificial diet with 0.2% daidzein, 0.01% prunetin or 0.04% formononetin; compared with control diet (DMSO) or flavones; adults
Description: as §1, §2

Trichoplusia ni = conditions: constitutively produced in soybean PI 227697 leaves; cited from earlier work
Anticarsia gemmatalis = conditions: constitutively produced in soybean PI 227697 leaves; cited from earlier work

Structure (SMILES): O=c1cc(-c2ccc(O)cc2)oc2cc(O)cc(O)c12 [apigenin]
- mortality of SBA (A. glycines): increased

Structure (SMILES): O=c1c(-c2ccc(O)cc2)coc2cc(O)ccc12 [daidzein]
- mortality of PA (A. pisum): higher mortality

Structure (SMILES): O=c1c(-c2ccc(O)cc2)coc2cc(O[C@@H]3O[C@H](CO)[C@@H](O)[C@H](O)[C@H]3O)cc(O)c12 [genistin]
- performance of Trichoplusia ni larvae (Trichoplusia ni): negatively affect the performance
- performance of Anticarsia gemmatalis larvae (Anticarsia gemmatalis): negatively affect the performance

Structure (SMILES): COc1cc(O)c2c(=O)c(-c3ccc(O)cc3)coc2c1 [prunetin]
- mortality of PA (A. pisum): higher mortality
